Literature values as cited in publication PMC7467712, “Physical Mechanisms Governing Substituent Effects on Arene–Arene Interactions in a Protein Milieu” (The Journal of Physical Chemistry. B, 2020).

Test system: Mus musculus AChE
Parameters: method as in PMID 23984975
Settings: 95% confidence interval within parentheses, at least four replicates

| Compound | IC50 |
| --- | --- |
| CCN(CC)CCNS(=O)(=O)Cc1ccc(Cl)cc1 [AL011] | 12 µM |
| CCN(CC)CCNS(=O)(=O)Cc1ccccc1 [AL029] | 139 µM |
| CCN(CC)CCNS(=O)(=O)Cc1ccc(F)cc1 [AL036] | 40 µM |
| CCN(CC)CCNS(=O)(=O)Cc1ccc(C(F)(F)F)cc1 [AL037] | 12 µM |
| CCN(CC)CCNS(=O)(=O)c1cccc(C(F)(F)F)c1 [AL040] | 22 µM |
| CCN(CC)CCNS(=O)(=O)c1cccc(OC)c1 [AL041] | 7 µM |
